In patent US12673084B2, “Compositions and methods for combinatorial drug discovery in nanoliter droplets” (The Broad Institute, Inc., priority 2017, dated 2026):
pIC50: −log10 of the molar value. Starred links: 1 amine or outer side, 2 acyl side, 3 side chain; linkers in the order of their positions; H or OH if unused. Non-standard residues stand in square brackets, D forms with d. Residues, ends and D or L forms follow the SMILES beside them. Groups on a side chain read outwards from the residue. *: point of attachment. Ethylenediamine = C(CN[*:2])N[*:1]; Hyp = O=C(O)[C@@H]1C[C@@H](O)CN1; Phg = N[C@H](C(=O)O)c1ccccc1; CO = O=C([*:1])[*:2]; Bn = c1ccc(C*)cc1

How the values were obtained:
[1] = biological target: Rac (Homo sapiens, UniProt P63000); conditions: cited from earlier work
[2] = tested on: E. coli K-12 MG1655; test: Antibiotic potentiation primary screen in nanoliter droplet microwell array (GFP growth, Bliss score); type: cell-based, Escherichia coli; conditions: for Primary screening prediction of synergy with tetracycline: compound 100 μM x tetracycline; for Primary screening call, pilot phase: pilot phase of screen; for Interaction between Tedizolid and Pasireotide (relative GFP): each 100 μM, same microwell array, FIG. 34
Method: To perform the antibiotic potentiation screen, each microwell chip received droplets containing a total of 64 input conditions, with 32 held constant across all chips, and 32 that vary on each chip (FIG. 3F). The first 32, held fixed, consisted of 30 antibiotic conditions (10 antibiotics×3 concentrations, no cells), and 2 media controls (no cells). The second 32 consisted of 1-2 positive controls (sulbactam 20 μM, + cells; or erythromycin 5 μM, + cells), 1-2 negative blank controls (+ cells), 2-4 media controls (+ cells), and 24-28 variable compounds (100 μM, + cells). All conditions were in cation-adjusted Mueller Hinton broth media, 2% DMSO (all concentrations reported are final concentrations).
This setup allowed the screen to be performed in a divide-and-conquer format. The repurposing compound library is composed of 4,160 compounds across 52 96-well plates (80 compounds per plate, with controls in column 1 and 12). Each 96-well plate was divided into 3 groups of 32, each run on a separate chip but pooled with the same set of antibiotics-carrying droplets.
E. coli K-12 MG1655 with plasmid-mediated constitutive expression of GFP was prepared as described above, and added to all conditions described as “+ cells” just prior to emulsification. After loading, imaging, and merging, microwell arrays were incubated at 37° C. (static), and then later imaged again to measure growth by GFP fluorescence.
To estimate synergy between compounds and antibiotics, the Bliss Independence metric was used.
The net growth inhibition for antibiotic A from microwells carrying an antibiotic A (no cells) droplet, and a media (+ cells) droplet were estimated. The net growth inhibition of a screening compound from microwells carrying compound B (+ cells) droplet, and a media (no cells) droplet were also estimated. All growth values were normalized to microwells containing a pair of media (+ cells) and media (no cells) droplets, and estimated synergy using the Bliss Independence metric. Since each antibiotic was present at 3 concentrations, a metric was summed for the compound across each of the 3 conditions to yield a final metric called “Bliss Score.” Compounds with net growth inhibition exceeding 80% were removed from analysis.
To estimate the uncertainty in the Bliss Score measurement, all microwells in the array were bootstrap resampled (100 iterations) to the number of counted for each pair of inputs and recomputed Bliss Scores to estimate a sampling distribution and standard error.

[3] = tested on: recombinant, homomeric GluR1 and GluR3 receptors; conditions: cited from earlier work
[4] = tested on: Native AMPA/kainate receptors, pyramidal neurons; conditions: cited from earlier work
[5] = tested on: Native AMPA/kainate receptors, interneurons; conditions: cited from earlier work
[6] = biological target: T1, receptors containing edited GluR2 subunits (Homo sapiens, UniProt P42262, Q607R); conditions: 100 microM compound; n=5 oocytes; Vh −80 mV; cited from earlier work
T1 construct: host or cells: Xenopus oocytes expressing recombinant receptors
T1 sequence (P42262 25-883 Q607R): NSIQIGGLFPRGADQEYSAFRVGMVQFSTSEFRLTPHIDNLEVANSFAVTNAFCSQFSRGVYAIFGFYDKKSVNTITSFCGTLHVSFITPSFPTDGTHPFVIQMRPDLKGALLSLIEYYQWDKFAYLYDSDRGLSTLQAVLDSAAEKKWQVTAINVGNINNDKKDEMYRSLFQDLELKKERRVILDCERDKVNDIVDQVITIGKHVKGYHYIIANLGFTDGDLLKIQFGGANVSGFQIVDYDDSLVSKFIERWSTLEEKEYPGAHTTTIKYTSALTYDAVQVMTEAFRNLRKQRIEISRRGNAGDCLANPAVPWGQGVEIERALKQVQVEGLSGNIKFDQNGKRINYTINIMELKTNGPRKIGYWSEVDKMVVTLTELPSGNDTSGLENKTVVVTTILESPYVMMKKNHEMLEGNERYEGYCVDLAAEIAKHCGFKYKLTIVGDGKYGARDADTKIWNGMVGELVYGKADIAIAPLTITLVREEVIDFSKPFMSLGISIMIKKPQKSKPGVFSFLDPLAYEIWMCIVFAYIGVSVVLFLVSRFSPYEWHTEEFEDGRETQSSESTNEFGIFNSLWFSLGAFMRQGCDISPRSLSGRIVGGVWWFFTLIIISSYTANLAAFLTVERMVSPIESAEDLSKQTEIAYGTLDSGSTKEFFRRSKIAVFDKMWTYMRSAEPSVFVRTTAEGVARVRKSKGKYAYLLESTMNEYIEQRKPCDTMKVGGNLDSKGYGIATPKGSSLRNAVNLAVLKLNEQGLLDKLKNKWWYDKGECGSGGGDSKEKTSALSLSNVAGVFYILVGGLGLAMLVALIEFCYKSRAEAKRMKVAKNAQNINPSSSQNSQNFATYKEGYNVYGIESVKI

[7] = 416 COPD patients; dry-powder inhaler; cited from earlier work
[8] = year-long trial; cited from earlier work
[9] = 12 weeks, cited from earlier work
[10] = cited from earlier work
[11] = biological target: somatostatin receptor 5 (Homo sapiens, UniProt P35346); conditions: cited from earlier work
somatostatin receptor 5, sequence (P35346 whole entry): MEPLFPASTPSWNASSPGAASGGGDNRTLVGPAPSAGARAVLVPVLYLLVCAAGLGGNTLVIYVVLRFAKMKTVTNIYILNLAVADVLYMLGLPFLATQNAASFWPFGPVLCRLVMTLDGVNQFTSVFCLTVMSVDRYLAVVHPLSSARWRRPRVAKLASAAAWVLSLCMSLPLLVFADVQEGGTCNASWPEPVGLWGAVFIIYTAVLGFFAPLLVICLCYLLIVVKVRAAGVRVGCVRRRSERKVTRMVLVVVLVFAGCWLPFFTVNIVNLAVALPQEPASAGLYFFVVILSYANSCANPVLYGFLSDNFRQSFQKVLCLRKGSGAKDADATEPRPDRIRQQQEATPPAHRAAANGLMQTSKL

[12] = tested on: P. aeruginosa; test: Checkerboard drug interaction assay ampicillin x sulbactam, 96-well broth culture vs microdroplet platform; type: cell-based, Pseudomonas aeruginosa
Source text: FIG. 27 is a graph of a comparison checkerboard assay between 96-well plates and microwell array platform. Comparison of checkerboard drug interaction assay in P. aeruginosa for ampicillin and a beta-lactamase inhibitor, sulbactam.

CCn1c2ccccc2c2cc(Nc3ccnc(NCCCN4CCOCC4)n3)ccc21 (racemic) [EHop-016]
more efficient inhibitor of Rac activity than NSC23766 [1]: 100 fold

CCN(CC)CCCC(C)Nc1nc(C)cc(Nc2ccc3nc(C)cc(N)c3c2)n1.Cl.Cl.Cl (racemic) [NSC23766]
Primary screening prediction of synergy with novobiocin ([2]; compound 100 μM x novobiocin, E. coli): synergy predicted
Primary screening prediction of synergy with tetracycline ([2]; E. coli): no synergy predicted

O=C(CNC(=O)c1ccc(Cl)cc1)NO [Benurestat, 2-(para-chlorobenzamide)-acetohydroxamic acid]
Primary screening call with vancomycin ([2]; compound 100 μM x vancomycin, E. coli): screening hit
Primary screening call, pilot phase ([2]; E. coli): hit

Br.Br.NCCCCCNCC12CC3CC(CC(C3)C1)C2 [IEM 1754, 1-ammonio-5-(1-adamantane-methylammoniopentanedibromide)]
Primary screening prediction of synergy with tetracycline ([2]; E. coli): predicted neutral
Primary screening call, pilot phase ([2]; E. coli): hit
times less potent than IEM-1460 ([3]; homomeric GluR1 and GluR3): 3.8 times
potency relative to IEM-1460 [4]: equipotent
times less potent than IEM-1460 [5]: approximately 3 times

C[N+](C)(C)CCCCCNCC12CC3CC(CC(C3)C1)C2 [IEM-1460, 1-trimethylammonio-5-(1-adamantane-methyl-ammoniopentanedibromide)]
pIC50 ([3]; holding potential (Vh) of −80 mV, open channel block): 5.80
inhibition of responses to 100 microM kainate [6]: 7.8+/−2.4%
pIC50 ([4]; Vh=−80 mV): 2.79
pIC50 ([5]; Vh=−80 mV): 5.80

CCc1cc2c(cc1CC)CC(NC[C@H](O)c1ccc(O)c3[nH]c(=O)ccc13)C2 [Indacaterol]
Primary screening call with erythromycin ([2]; compound 100 μM x erythromycin, E. coli): screening hit
FEV1 (both trough and AUC) compared to placebo [7]: statistically improved
improving FEV1 compared with twice-daily formoterol [8]: significantly more effective
effect on FEV1 compared with tiotropium [9]: no statistical difference
St. George's Respiratory Questionnaire (SGRQ) total score ([9]; vs tiotropium): greater improvements
transition dyspnoea index (TDI) total score ([9]; vs tiotropium): greater improvements

C[C@@H](O)[C@@H]1NC(=O)[C@H](CCCCN)NC(=O)[C@@H](Cc2c[nH]c3ccccc23)NC(=O)[C@H](Cc2ccccc2)NC(=O)[C@@H](NC(=O)[C@H](N)Cc2ccccc2)CSSC[C@@H](C(=O)N[C@H](CO)[C@@H](C)O)NC1=O [Octreotide]
half-life [10]: 1.5 h

NCCCC[C@@H]1NC(=O)[C@@H](Cc2c[nH]c3ccccc23)NC(=O)[C@H](c2ccccc2)NC(=O)[C@@H]2C[C@@H](OC(=O)NCCN)CN2C(=O)[C@H](Cc2ccccc2)NC(=O)[C@H](Cc2ccc(OCc3ccccc3)cc2)NC1=O [Pasireotide, cyclo[{4-(NH2-C2H4-NH—CO—O-)Pro}-Phg-DTrp-Lys-Tyr(4-Bzl)-Phe]] (cyclo([Hyp]([CO-Ethylenediamine])[Phg][dW]KY(Bn)F))
Interaction between Tedizolid and Pasireotide (relative GFP) [2]: synergistic interaction
increased affinity to somatostatin receptor 5 compared to other somatostatin analogs [11]: 40 fold

Cn1nnc(-c2ccc(-c3ccc(N4C[C@H](CO)OC4=O)cc3F)cn2)n1 [Tedizolid]
Interaction between Tedizolid and Pasireotide (relative GFP) [2]: synergistic interaction

CC[C@H]1OC(=O)[C@H](C)[C@@H](O[C@H]2C[C@@](C)(OC)[C@@H](O)[C@H](C)O2)[C@H](C)[C@@H](O[C@@H]2O[C@H](C)C[C@H](N(C)C)[C@H]2O)[C@](C)(O)C[C@@H](C)C(=O)[C@H](C)[C@@H](O)[C@]1(C)O [erythromycin]
Bliss score with tetracycline ([2]; positive control, expected value, erythromycin 5 μM x tetracycline, E. coli): ~ 0.5

CC1(C)[C@H](C(=O)O)N2C(=O)C[C@H]2S1(=O)=O [sulbactam]
Bliss score with ampicillin ([2]; positive control, expected value, sulbactam 20 μM x ampicillin, E. coli): ~ 1
FIC with ampicillin ([12]; 96-well broth culture): <= 0.5
FIC with ampicillin ([12]; microdroplet platform): <= 0.3125
